Assay results from US6039931A, “Derivatized DTPA complexes, pharmaceutical agents containing these compounds, their use, and processes for their production” (Schering Aktiengesellschaft, priority 1989, dated 2000).

What was measured:
[1] = tested on: female rats of the strain Lew/Mol; conditions: at this point in time after administration; commercial contrast medium; cited from earlier work
[2] = tested on: female rats of the strain Lew/Mol; test: in vivo MRI imaging (T1-weighted spin echo, 2 tesla) after i.v. administration, 3 compounds; parameters: species or system rat (Lew/Mol); conditions: 0.1 mmol Gd/kg i.v.
Description: The test animals were female rats of the strain Lew/Mol weighing 160-180 g. Prior to imaging, the animals were anesthetized ("Rompun"+"Ketavet") and provided with a catheter in the caudal vein to administer the contrast medium. Imaging took place in an MRI experimental device by General Electric (field strength 2 tesla). First of all, the images (7, 9, 11) were made without contrast medium with a T1 -weighted spin echo sequence (TR=400 msec, TE=20 msec, axial section plane, layer thickness 3 mm). The liver appears in each case with the normal signal intensity; the stomach is […] in tendency than the liver. […] This is due to feed residues, the feed containing manganese in relatively high concentrations (at the time of the test, the animals had been fasting for 6 hours) . Animal 3 had been implanted with an osteogenic sarcoma three weeks previously; this sarcoma was of equal contrast in the blank image and could not be defined. The administration of contrast medium took place via the venous catheter with a dose of 0.1 mmol Gd/kg (concentration of the solutions 0.05 mmol Gd/ml in 0.9% NaCl) for all 3 compounds.

[3] = T1 relaxation (relaxivity) in water and in plasma; assay type: physicochemical
[4] = tested on: male hairless rat (Lew/Mol), Brown Pearce tumor; test: in vivo NMR imaging (spin echo, 2 tesla) after i.v. administration, rat with Brown Pearce tumor in the thigh; conditions: 0.06 mmol/kg i.v.
Description: Spin echo scans were made with the NMR tomograph (CSI 2 T) at 2 tesla (TR time of 400 ms and TE time of 20 ms).

In the case of CNC[C@H](O)[C@@H](O)[C@H](O)[C@H](O)CO.CNC[C@H](O)[C@@H](O)[C@H](O)[C@H](O)CO.O=C([O-])CN(CCN(CC(=O)[O-])CC(=O)O)CCN(CC(=O)[O-])CC(=O)O.[Gd+3] [Magnevist, dimeglumine salt of Gd DTPA [gadolinium(III)complex of diethylenetriaminepentaacetic acid]], the “enhancement of the liver (uptake by the hepatocytes), comparison” value [1] is listed as “cannot be observed at this point in time after administration”.
For O=C([O-])CN(CCN(CC(=O)[O-])CC(Cc1ccc(OCc2ccccc2)cc1)N(CC(=O)[O-])CC(=O)[O-])CC(=O)[O-].[Gd+3].[Na+].[Na+] (stereo not drawn) [Example 10(c), Disodium Salt of the Gadolinium Complex of 3,6,9-Triaza-3,6,9-tris(carboxymethyl)-4-(4-benzyloxybenzyl)undecanedioic Acid], the “enhancement of the stomach, ranking among the 3 compounds” value [2] was “most strongly”, the “enhancement of the liver” value ([2]; after 60 minutes) was “A marked enhancement of the liver” and the “absorption of the contrast medium by the tumor (implanted osteogenic sarcoma)” value ([2]; animal 3, 60 minutes) was “has not absorbed the contrast medium at all, or only to a lesser proportion”. For the same molecule, the “visibility of the tumor (implanted osteogenic sarcoma)” value ([2]; animal 3, 60 minutes) was “the tumor is now additionally clearly visible”.
For CCOc1ccc(CC(CN(CCN(CC(=O)[O-])CC(=O)[O-])CC(=O)[O-])N(CC(=O)[O-])CC(=O)[O-])cc1.[Gd+3].[Na+].[Na+] (stereo not drawn) [Example 8(c), Disodium Salt of the Gadolinium Complex of 3,6,9-Triaza-3,6,9-tris(carboxymethyl)-4-(4-ethoxybenzyl)undecanedioic Acid], the “enhancement of the stomach, ranking among the 3 compounds” value [2] was “least” and the “enhancement of the liver” value ([2]; after 90 minutes) was “A marked enhancement of the liver”.
In the case of CCCCOc1ccc(CC(CN(CCN(CC(=O)[O-])CC(=O)[O-])CC(=O)[O-])N(CC(=O)[O-])CC(=O)[O-])cc1.[Gd+3].[Na+].[Na+] (stereo not drawn) [Example 9(c), Disodium Salt of the Gadolinium Complex of 3,6,9-Triaza-3,6,9-tris(carboxymethyl)-4-(4-butoxybenzyl)undecanedioic Acid], the T1 relaxation ([3]; in plasma) is reported as 14.20 ± 0.98 mmol⁻¹ s⁻¹, the T1 relaxation ([3]; in water) is reported as 5.80 ± 0.26 mmol⁻¹ s⁻¹ and the “enhancement of the liver” value ([2]; after 60 minutes) is reported as “A marked enhancement of the liver”.
In the case of COc1ccc(CC(CN(CCN(CC(=O)[O-])CC(=O)[O-])CC(=O)[O-])N(CC(=O)[O-])CC(=O)[O-])cc1.[Gd+3].[Na+].[Na+] (stereo not drawn) [Example 1(c) disodium salt, Gadolinium Complex of 3,6,9-Triaza-3,6,9-tris(carboxymethyl)-4-(4-methoxybenzyl)undecanedioic Acid], the “enhancement in the urinary bladder” value ([4]; 1 minute after administration) is reported as “the first enhancement is already apparent in the urinary bladder”, the “increase in contrast in the stomach” value ([4]; 45 minutes after injection) is reported as “A strong increase in contrast is visible in the stomach” and the “visualization of the tumor, of the urinary bladder, and of the stomach” value ([4]; 60 minutes after injection) is reported as “A good visualization of the tumor (at the level of the reference tube) of the urinary bladder, and of the stomach”. For the same molecule, the “contrasting of the renal pelvis” value ([4]; 60 minutes, further improved 65 minutes after injection in a different layer) was “Contrasting of the renal pelvis is also striking” and the “contrast enhancement in an axial scan in the zone of the liver” value ([4]; 180 minutes after injection) was “the contrast enhancement is likewise clearly recognizable”.
